Data from patent US6593369B2, “Methods, compositions, and kits for enhancing female sexual desire and responsiveness” (Vivus, Inc., priority 1997, dated 2003).

Tests used:
clitoris [1] = assay: Measurement of clitoral skin temperature after topical application to the clitoris; format: in vivo, human
Source text: 2. Measurement of clitoral skin temperature:
A highly sensitive thermocouple capable of determining changes in skin temperature of 0.002 degrees Fahrenheit was connected to a computer-based recording device (F1000 by Focused Technology, Inc.) and used to measure changes in clitoral skin temperature. The patient changed from their clothes into a gown and was placed in a semi-reclining position in a comfortable recliner. Room temperature was controlled at 76 degrees F. (±1) and no air drafts were present. The thermocouple was coated with a small amount of lubricating jelly and placed in a labial skin fold adjacent to the clitoris. A period of equilibration (˜15 minutes) allowed the measured temperature to stabilize. Next, precise doses of various pharmaceuticals were applied as solutions directly to the clitoris by a calibrated micropipette (Justor 1100DG, Sigma; St. Louis, Mo.). Typical volumes used were 20-50 microliters. Clitoral temperatures were continually measured and printed for analysis. Increases in skin temperature directly correlate with changes in cutaneous blood flow. See Birnbaum (U.S. Pat. No. 4,311,707) for an example of using this method to compare the relative vasodilatory potency of topical prostaglandins. Changes in skin temperature are reported as maximum recorded temperature in an interval minus the temperature at the end of the equilibration period. The magnitudes of these recorded temperature changes may be used as a measurement of the change in clitoral blood flow.
(§1) 1. Solutions of prostaglandin E-1 and E-2 were prepared by dissolving weighed amounts of the prostaglandin in triacetin to produce a concentrated stock solution. Serial dilutions of this stock solution were made by a micropipette. Since triacetin can partially hydrolyze on standing to produce traces of acetic acid, the triacetin was treated with a small amount of a concentration potassium bicarbonate solution to remove any acetic acid, then dried with magnesium sulfate and filtered to give a triacetin free of acid or water. Solutions were used the same day that they were made. Concentrations of prostaglandin varied from 2.0-1,000 micrograms per milliliter of triacetin. Following equilibration of clitoral temperature, a dose of triacetin was applied to the clitoris prior to active drug solutions to determine the effect of the carrier on the clitoris.
(§2) 2. R-alphamethylhistamine hydrochloride is not soluble in triacetin but is soluble in saline. Normal saline +2 millimolar potassium phosphate at pH 7.4 was used to prepare solutions of R-alphamethylhistamine hydrochloride with concentrations from 2.5-100 micrograms per milliliter of saline.
(§3) Solutions were applied directly to the clitoris by means of a calibrated micropipette (Justor 1100DG, Sigma; St. Louis, Mo.).

clitoral artery = assay: Measurement of clitoral blood flow by ultrasound (Doppler velocitometer); format: in vivo, human; conditions: Patient No. 1; for Change in Clitoral Blood Flow: peak systolic flow vs baseline; for Change in Clitoral Blood Flow, percent in brackets: vs baseline
Source text: 1. Measurement of clitoral blood flow by ultrasound:
Clitoral blood flow was estimated by utilizing the Knoll-Midas ultrasonic Doppler velocitometer (Urometrics, Inc.). The ultrasound probe was manually positioned over the middle of the clitoral body as it courses superficially through the perineum between the external vaginal opening and the end of the clitoris (glans clitoris). […] This method is analogous to that used in measuring the cavernosal artery velocity in the penis. The clitoral artery was easily visualized. Measurements were made at baseline and at various time intervals following the application of a drug to the clitoris. Peak systolic blood flow at baseline was compared to peak systolic blood flow following drug administration as a method of comparing relative efficacy in inducing clitoral artery vasodilatation in a manner analogous to studies of such drugs in men.
as §1, §3

clitoris [2] = assay: Patient subjective reports of sexual arousal and symptoms after application to the clitoris; format: in vivo, human
Protocol: 3. Patient Subjective Reports:
Patient reports of symptoms and effects of agents on sexual arousal measures (such as warmth and tingling, vaginal lubrication and excitation) were recorded. Blood pressure and pulse were also recorded. Different drugs were given on different days. Some series of drug titrations were recorded on several days.
as §1, §2, §3

clitoris [3] = assay: Subjective examples: composition applied directly to the clitoris of female subjects; format: in vivo, human
Source text: The clitoris is often retracted or hidden under the clitoral hood. Thus, prior to administration of the present composition, the clitoral hood should be retracted with the finger of one hand, and the clitoral hood should be held back as the dose is applied. IV. Subjective Examples

[4] = Chemical stability of prostaglandin preparations; format: physicochemical; conditions: composition containing a citrate salt or tocopherol
[5] = Patient No. 1, 0.020 mcg in triacetin on clitoris
[6] = Patient No. 1, 0.200 mcg in triacetin on clitoris
[7] = Patient No. 1, 0.400 mcg in triacetin on clitoris
[8] = Patient No. 1, 1.000 mcg in triacetin on clitoris
[9] = Patient No. 1, 10.0 mcg in triacetin on clitoris
[10] = Patient No. 1, 50.0 mcg in triacetin on clitoris
[11] = Patient No. 2, 1.000 mcg in triacetin on clitoris
[12] = Example 2, 50 μg with 150 μg phentolamine hydrochloride
[13] = Example 6, 300 μg liposomal mixture after 50 mg naltrexone HCl 2 hours before, person, anorgasmia secondary to paroxetine

## CCCCC[C@H](O)/C=C/[C@H]1[C@H](O)CC(=O)[C@@H]1C/C=C\CCCC(=O)O [PGE-2, 7-[3-hydroxy-2-(3-hydroxy-1-octenyl)-5-oxocyclopentyl]-5-heptenoic acid]
Clitoris [1]; [5]
  Temperature Change: 2.1 ° F.
Clitoris [1]; Patient No. 1, 0.200 mcg PGE-2 about equal to 100 mcg PGE-1
  Potency relative to PGE-1 (clitoral temperature increase): about 500 times
Clitoris [1]; [6]
  Temperature Change: 2.4 ° F.
Clitoris [1]; [7]
  Temperature Change: 4.5 ° F.
Clitoris [1]; [8]
  Temperature Change: 2.3 ° F.
Clitoris [1]; [9]
  Temperature Change: 4.8 ° F.
Clitoris [1]; [10]
  Temperature Change: 2.0 ° F.
Clitoris [1]; Patient No. 2, 0.050 mcg in triacetin on clitoris
  Temperature Change: 1.8 ° F.
Clitoris [1]; [11]
  Temperature Change: 2.4 ° F.
Clitoris [1]; Patient No. 2, 10.0 mcg in triacetin on clitoris
  Temperature Change: 2.0 ° F.
Clitoris [1]; both patients
  Clitoral temperature effect (conclusion): increases in clitoral temperatures
Clitoral artery; 0.020 mcg in triacetin
  Change in Clitoral Blood Flow: 0 cm/s
Clitoral artery; 0.200 mcg in triacetin
  Change in Clitoral Blood Flow: 11 cm/s
  Change in Clitoral Blood Flow, percent in brackets: +50%
Clitoral artery; 0.400 mcg in triacetin
  Change in Clitoral Blood Flow: 12 cm/s
  Change in Clitoral Blood Flow, percent in brackets: +92%
Clitoral artery; 1.000 mcg in triacetin
  Change in Clitoral Blood Flow: 10 cm/s
  Change in Clitoral Blood Flow, percent in brackets: +77%
Clitoral artery; 10.0 mcg in triacetin
  Change in Clitoral Blood Flow: 10 cm/s
  Change in Clitoral Blood Flow, percent in brackets: +100%
Clitoral artery; 50.0 mcg in triacetin
  Change in Clitoral Blood Flow: 2 cm/s
  Change in Clitoral Blood Flow, percent in brackets: +20%
Clitoral artery; triacetin solution with palmitic acid (PGDH inhibitor) and PGE2 in 10:1 weight ratio
  Dose resulting in an increase in clitoral blood flow: 0.4 nanograms
Clitoris [2]; Patient No. 1
  Best dose: 0.400 µg
  Doses with adverse effects: 50 µg
Clitoris [2]; [5]
  Subjective Response: Rare tingle.
Clitoris [2]; [6]
  Subjective Response: Very excited.
Clitoris [2]; [7]
  Subjective Response: Very excited, 9/10.
Clitoris [2]; [8]
  Subjective Response: Excited, 7/10.
Clitoris [2]; [9]
  Subjective Response: Very excited.
Clitoris [2]; [10]
  Subjective Response: Excited. 2/10 abdominal
Clitoris [2]; Patient No. 1, triacetin solution with palmitic acid (PGDH inhibitor) and PGE2 in 10:1 weight ratio
  Dose with subjective reports of a sexual response: 2 nanograms
Clitoris [2]; Patient No. 2
  Amount giving a sexual response: ≥ 0.050 µg
Clitoris [2]; [11]
  Subjective Response: Excited.
Clitoris [3]; Example 1A, 20 μg with 150 μg phentolamine hydrochloride and 3 mg papaverine hydrochloride in liposomal solution, person, no sexual dysfunction
  Sexual response after application: the clitoris became engorged and vaginal lubrication was noted
Clitoris [3]; Example 1B, 125 μg with 125 μg phentolamine, aqueous solution, 2 drops, same person
  Sexual response after application: essentially the same response as in part A
Clitoris [3]; Example 1C, 125 μg alone in aqueous saline, 3 drops, same person
  Sexual response after application: the same response described in part A but with reduced intensity
Clitoris [3]; [12]
  Duration of clitoral enlargement and sexual excitement: gone within one hour after application of the composition
  Time at which stimulation peaked after application: around 15 minutes
Clitoris [3]; Example 2, 50 μg with 150 μg phentolamine hydrochloride, aqueous solution, person, no sexual dysfunction
  Sexual response after application: warm tingling sexual feelings in their clitoris within one minute
Clitoris [3]; Example 2, repeat dose one and a half hours after the first dose
  Response to repeat dosing: gave the same response as the first dose
Clitoris [3]; Example 2, scale of one (1) to ten (10), ten highest, 50 μg with 150 μg phentolamine hydrochloride
  Intensity of response rated by subject: 8
Clitoris [3]; Example 5, 150 μg in liposomal solution, three drops, person with decreased sexual responsiveness
  Sexual response after application: greatly increased their sexual desire and responsiveness
Clitoris [3]; [13]
  Sexual response after application: had the best sexual experience of their life
  Time to tingling sexual feelings spreading over body: ≤ 1 min
[4]
  Stability in composition: especially stabile
